Measured values taken from PubChem BioAssay AID1963867 (Molecular Pharmacology Branch, DTP, NCI, 2024).

System: KRAS-mutant PDC tumor spheroid with HUVEC/MSC, viability
Experiment: Anticancer human tumor 327498-153-R-J2-PDC patient-derived uterine carcinosarcoma cell line growth inhibition [KRAS2]
Conditions: for IC50: curve of first compound; for viability, T/C: stronger effect = lower value; active = viability on the fitted dose curve at most 10% of control; inactive = the rest
Method in brief: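 Combination screen of spheroid viability in tumor-cell co-cultures with endothelial (HUVEC) and mesenchymal stem cell stroma. Each agent was tested in half-log dilutions, topping at clinical Cmax or at 10 microM without a known Cmax.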

[1] = second compound 0.1 µM, first compound 0.000316 µM
[2] = second compound 0.1 µM, first compound 0.001 µM
[3] = second compound 0.1 µM, first compound 0.00316 µM
[4] = second compound 0.1 µM, first compound 0.01 µM
[5] = second compound 0.1 µM, first compound 0.0316 µM
[6] = second compound 0.316 µM, first compound 0.000316 µM
[7] = second compound 0.316 µM, first compound 0.001 µM
[8] = second compound 0.316 µM, first compound 0.00316 µM
[9] = second compound 0.316 µM, first compound 0.01 µM
[10] = second compound 0.316 µM, first compound 0.0316 µM
[11] = second compound 1 µM, first compound 0.000316 µM
[12] = second compound 1 µM, first compound 0.001 µM
[13] = second compound 1 µM, first compound 0.00316 µM
[14] = second compound 1 µM, first compound 0.01 µM
[15] = second compound 1 µM, first compound 0.0316 µM
[16] = second compound 3.16 µM, first compound 0.000316 µM
[17] = second compound 3.16 µM, first compound 0.001 µM
[18] = second compound 3.16 µM, first compound 0.00316 µM
[19] = second compound 3.16 µM, first compound 0.01 µM
[20] = second compound 3.16 µM, first compound 0.0316 µM
[21] = second compound 10 µM, first compound 0.000316 µM
[22] = second compound 10 µM, first compound 0.001 µM
[23] = second compound 10 µM, first compound 0.00316 µM
[24] = second compound 10 µM, first compound 0.01 µM
[25] = second compound 10 µM, first compound 0.0316 µM
[26] = second compound 0.1 µM, first compound 0.1 µM
[27] = second compound 0.316 µM, first compound 0.1 µM
[28] = second compound 1 µM, first compound 0.1 µM
[29] = second compound 3.16 µM, first compound 0.1 µM
[30] = second compound 10 µM, first compound 0.1 µM
[31] = second compound 0.1 µM, first compound 0.316 µM
[32] = second compound 0.1 µM, first compound 1 µM
[33] = second compound 0.1 µM, first compound 3.16 µM
[34] = second compound 0.1 µM, first compound 10 µM
[35] = second compound 0.316 µM, first compound 0.316 µM
[36] = second compound 0.316 µM, first compound 1 µM
[37] = second compound 0.316 µM, first compound 3.16 µM
[38] = second compound 0.316 µM, first compound 10 µM
[39] = second compound 1 µM, first compound 0.316 µM
[40] = second compound 1 µM, first compound 1 µM
[41] = second compound 1 µM, first compound 3.16 µM
[42] = second compound 1 µM, first compound 10 µM
[43] = second compound 3.16 µM, first compound 0.316 µM
[44] = second compound 3.16 µM, first compound 1 µM
[45] = second compound 3.16 µM, first compound 3.16 µM
[46] = second compound 3.16 µM, first compound 10 µM
[47] = second compound 10 µM, first compound 0.316 µM
[48] = second compound 10 µM, first compound 1 µM
[49] = second compound 10 µM, first compound 3.16 µM
[50] = second compound 10 µM, first compound 10 µM
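Note: spheroids exposed to agents for seven days before reading.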
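Throughout, for viability, T/C: 100% = DMSO vehicle wells so lower means fewer viable cells.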

CC(=O)Nc1cccc(-n2c(=O)n(C3CC3)c(=O)c3c(Nc4ccc(I)cc4F)n(C)c(=O)c(C)c32)c1 + COc1cc2nc(C)nc(NC(C)c3cc(N)cc(C(F)(F)F)c3)c2cc1OC1CCOC1
0.00262 µM: IC50 (second compound 0.316 µM)
0.00371 µM: IC50 (second compound 0.1 µM)
< 0.0001 µM: IC50 (second compound 10 µM)
0.00105 µM: IC50 (second compound 3.16 µM)
0.00212 µM: IC50 (second compound 1 µM)
inactive: viability, T/C (second compound 0.1 µM, first compound 0.0001 µM) 67.4% | viability, T/C [1] 68.6% | viability, T/C [2] 55.7% | viability, T/C [3] 48.5% | viability, T/C [4] 46.1% | viability, T/C [5] 25.5% | viability, T/C (second compound 0.316 µM, first compound 0.0001 µM) 74.9% | viability, T/C [6] 63.1% | viability, T/C [7] 54.5% | viability, T/C [8] 50.9% | viability, T/C [9] 43.2% | viability, T/C [10] 26.8% | viability, T/C (second compound 1 µM, first compound 0.0001 µM) 64.6% | viability, T/C [11] 67.3% | viability, T/C [12] 52.3% | viability, T/C [13] 44.3% | viability, T/C [14] 40.8% | viability, T/C [15] 22.9% | viability, T/C (second compound 3.16 µM, first compound 0.0001 µM) 56.5% | viability, T/C [16] 52.6% | viability, T/C [17] 47.9% | viability, T/C [18] 44.1% | viability, T/C [19] 40% | viability, T/C [20] 22.4% | viability, T/C (second compound 10 µM, first compound 0.0001 µM) 48.1% | viability, T/C [21] 37.7% | viability, T/C [22] 38.4% | viability, T/C [23] 29.8% | viability, T/C [24] 31.1% | viability, T/C [25] 18.3%

CC(C)n1nc(-c2ccc3oc(N)nc3c2)c2c(N)ncnc21 + COc1cc2nc(C)nc(NC(C)c3cc(N)cc(C(F)(F)F)c3)c2cc1OC1CCOC1
0.00229 µM: IC50 (second compound 0.316 µM)
< 0.000316 µM: IC50 (second compound 10 µM)
active: viability, T/C [26] 6.27% | viability, T/C [27] 6.67% | viability, T/C [28] 6.87% | viability, T/C [20] 7.65% | viability, T/C [29] 4.15% | viability, T/C [25] 3.51% | viability, T/C [30] 1.94%
0.00198 µM: IC50 (second compound 1 µM)
inactive: viability, T/C [1] 77.5% | viability, T/C [2] 71.7% | viability, T/C [3] 59.1% | viability, T/C [4] 27.3% | viability, T/C [5] 10.2% | viability, T/C [6] 71.5% | viability, T/C [7] 60.4% | viability, T/C [8] 46.5% | viability, T/C [9] 23.3% | viability, T/C [10] 8.8% | viability, T/C [11] 60.2% | viability, T/C [12] 63.7% | viability, T/C [13] 40.1% | viability, T/C [14] 26.3% | viability, T/C [15] 8.62% | viability, T/C [16] 52.6% | viability, T/C [17] 50.1% | viability, T/C [18] 36.1% | viability, T/C [19] 17.1% | viability, T/C [21] 38.8% | viability, T/C [22] 35.5% | viability, T/C [23] 23.4% | viability, T/C [24] 17.4%
0.000824 µM: IC50 (second compound 3.16 µM)
0.00434 µM: IC50 (second compound 0.1 µM)

COC(=O)c1ccc2c(C(=Nc3ccc(N(C)C(=O)CN4CCN(C)CC4)cc3)c3ccccc3)c(O)[nH]c2c1 + COc1cc2nc(C)nc(NC(C)c3cc(N)cc(C(F)(F)F)c3)c2cc1OC1CCOC1
0.585 µM: IC50 (second compound 3.16 µM)
inactive: viability, T/C [5] 94.6% | viability, T/C [26] 77.2% | viability, T/C [31] 72.2% | viability, T/C [32] 83.7% | viability, T/C [33] 33.9% | viability, T/C [34] 34.5% | viability, T/C [10] 73% | viability, T/C [27] 65.1% | viability, T/C [35] 57% | viability, T/C [36] 40.4% | viability, T/C [37] 29% | viability, T/C [38] 24.8% | viability, T/C [15] 62% | viability, T/C [28] 59% | viability, T/C [39] 64.3% | viability, T/C [40] 42.9% | viability, T/C [41] 25.5% | viability, T/C [42] 20.4% | viability, T/C [20] 69.5% | viability, T/C [29] 69.6% | viability, T/C [43] 60.9% | viability, T/C [44] 39.3% | viability, T/C [45] 19.9% | viability, T/C [25] 54.2% | viability, T/C [30] 58.9% | viability, T/C [47] 47.1% | viability, T/C [48] 27.2%
0.28 µM: IC50 (second compound 10 µM)
2.16 µM: IC50 (second compound 0.1 µM)
0.648 µM: IC50 (second compound 1 µM)
active: viability, T/C [46] 0.17% | viability, T/C [49] 2.2% | viability, T/C [50] 0.22%
0.49 µM: IC50 (second compound 0.316 µM)

COc1cc(Nc2ncc3c(n2)-c2ccc(Cl)cc2C(c2c(F)cccc2OC)=NC3)ccc1C(=O)O + COc1cc2nc(C)nc(NC(C)c3cc(N)cc(C(F)(F)F)c3)c2cc1OC1CCOC1
< 0.0316 µM: IC50 (second compound 0.1 µM) | IC50 (second compound 0.316 µM) | IC50 (second compound 1 µM) | IC50 (second compound 3.16 µM) | IC50 (second compound 10 µM)
inactive: viability, T/C [5] 17.7% | viability, T/C [26] 12.6% | viability, T/C [31] 9.32% | viability, T/C [32] 9.41% | viability, T/C [33] 13.8% | viability, T/C [34] 12.8% | viability, T/C [10] 16.1% | viability, T/C [27] 11.8% | viability, T/C [35] 12.2% | viability, T/C [36] 9.86% | viability, T/C [37] 12.5% | viability, T/C [38] 12.2% | viability, T/C [15] 13.3% | viability, T/C [28] 10.3% | viability, T/C [39] 13.1% | viability, T/C [40] 10.5% | viability, T/C [41] 11.7% | viability, T/C [42] 11.5% | viability, T/C [20] 13.1% | viability, T/C [29] 10.9% | viability, T/C [43] 9.78% | viability, T/C [44] 9.93% | viability, T/C [45] 10.5% | viability, T/C [46] 10.5%
active: viability, T/C [25] 8.09% | viability, T/C [30] 8.45% | viability, T/C [47] 5.81% | viability, T/C [48] 4.52% | viability, T/C [49] 8.87% | viability, T/C [50] 4.93%

COc1cc2nccc(Oc3ccc(NC(=O)C4(C(=O)Nc5ccc(F)cc5)CC4)cc3)c2cc1OC + COc1cc2nc(C)nc(NC(C)c3cc(N)cc(C(F)(F)F)c3)c2cc1OC1CCOC1
0.689 µM: IC50 (second compound 0.1 µM)
< 0.0316 µM: IC50 (second compound 10 µM)
0.534 µM: IC50 (second compound 0.316 µM)
0.379 µM: IC50 (second compound 1 µM)
0.385 µM: IC50 (second compound 3.16 µM)
inactive: viability, T/C [5] 73.8% | viability, T/C [26] 82.3% | viability, T/C [31] 74.6% | viability, T/C [32] 26.7% | viability, T/C [33] 0.88% | viability, T/C [34] 87% | viability, T/C [10] 68.3% | viability, T/C [27] 60.8% | viability, T/C [35] 64.5% | viability, T/C [36] 28.7% | viability, T/C [37] 0.85% | viability, T/C [38] 68.5% | viability, T/C [15] 62.9% | viability, T/C [28] 54% | viability, T/C [39] 53.9% | viability, T/C [40] 22.9% | viability, T/C [41] 0.96% | viability, T/C [42] 63.1% | viability, T/C [20] 62.5% | viability, T/C [29] 57.3% | viability, T/C [43] 54.2% | viability, T/C [44] 22.1% | viability, T/C [45] 0.52% | viability, T/C [46] 67.3% | viability, T/C [25] 50.6% | viability, T/C [30] 44.8% | viability, T/C [47] 40.5% | viability, T/C [48] 12.1% | viability, T/C [49] 0.37% | viability, T/C [50] 57.9%

O=C(c1cc(Cc2n[nH]c(=O)c3ccccc23)ccc1F)N1CCN(C(=O)C2CC2)CC1 + COc1cc2nc(C)nc(NC(C)c3cc(N)cc(C(F)(F)F)c3)c2cc1OC1CCOC1
2.47 µM: IC50 (second compound 1 µM)
2.22 µM: IC50 (second compound 0.1 µM)
inactive: viability, T/C [5] 84.2% | viability, T/C [26] 107% | viability, T/C [31] 89.7% | viability, T/C [32] 78.7% | viability, T/C [33] 37.3% | viability, T/C [34] 20.7% | viability, T/C [10] 77.2% | viability, T/C [27] 79.2% | viability, T/C [35] 81.9% | viability, T/C [36] 68.5% | viability, T/C [37] 30.3% | viability, T/C [38] 15.9% | viability, T/C [15] 109% | viability, T/C [28] 104% | viability, T/C [39] 102% | viability, T/C [40] 94.6% | viability, T/C [41] 37.8% | viability, T/C [42] 18.7% | viability, T/C [20] 78.4% | viability, T/C [29] 77.3% | viability, T/C [43] 76.1% | viability, T/C [44] 66.3% | viability, T/C [45] 32.5% | viability, T/C [46] 18.5% | viability, T/C [25] 99.8% | viability, T/C [30] 61% | viability, T/C [47] 63% | viability, T/C [48] 56.9% | viability, T/C [49] 25.3% | viability, T/C [50] 14.7%
1.74 µM: IC50 (second compound 3.16 µM)
1.75 µM: IC50 (second compound 0.316 µM)
0.719 µM: IC50 (second compound 10 µM)
